Measured values from patent publication US11091485B2, “Imidazo[1′,2′:1,6]pyrido[2,3-d]pyrimidine compound as protein kinase inhibitor” (SHENGKE PHARMACEUTICALS (JIANGSU) LTD., priority 2017, dated 2021).

Experiments:
CDK4/Cyclin D1 = CDK4/Cyclin D1 (Homo sapiens (Human), UniProt P11802); test: Biochemical kinase inhibition test, CDK4/Cyclin D1 (32P-ATP, Rb substrate); settings: recombinant CDK4/Cyclin D1; 10 μM ATP; read-out: CDK4/Cydin D1 IC50
Description: (§1) Potency determination of biochemical kinase inhibition test. Kinase activity test and IC50 determination. […] The kinase reaction was initiated by adding 1 μg (1.5 μM) of recombinant retinoblastoma protein, […] and 10μ Ci γ-32P-ATP. The reaction was incubated at 30° C. for 20 minutes, and was terminated by adding 2×Laemmli sample buffer, heated at 95° C. for three minutes, and the resulting solution was dissolved with 12% acrylamide SDS-PAGE and autoradiographed. A densitometer (Bio-Rad) was used to quantify the corresponding phosphorylated substrate protein bands. […] These reactions took place in the presence of 10 μM ATP.

CDK6/cyclin D1 = CDK6/cyclin D1 (Homo sapiens (Human), UniProt Q00534); test: Biochemical kinase inhibition test, CDK6/cyclin D1 (similar method); settings: for IC50: CDK6/cyclin D1, 10 μM ATP, read-out: CDK6/Cyelin D1 IC50; for selectivity for CDK6/cyclin D1 relative to CDK4/cyclin D1: enzyme inhibitory activity, CDK6/cyclin D1 vs CDK4/cyclin D1
Description: as §1

FLT3 = FLT3 (Homo sapiens (Human), UniProt P36888); test: Enzyme inhibition FLT3; assay type: biochemical; settings: read-out: IC50 value of inhibition against FLT3
Description: (§2) In addition, the inhibitory activities of the compounds of the present disclosure against enzyme ABL1, FLT3 and PIM1 were also tested.

PIM1 = PIM1 (Homo sapiens (Human), UniProt P11309); test: Enzyme inhibition PIM1; assay type: biochemical; settings: read-out: IC50 value of inhibition against PIM1
Description: as §2

Sequence of CDK4/Cyclin D1 (P11802 whole entry): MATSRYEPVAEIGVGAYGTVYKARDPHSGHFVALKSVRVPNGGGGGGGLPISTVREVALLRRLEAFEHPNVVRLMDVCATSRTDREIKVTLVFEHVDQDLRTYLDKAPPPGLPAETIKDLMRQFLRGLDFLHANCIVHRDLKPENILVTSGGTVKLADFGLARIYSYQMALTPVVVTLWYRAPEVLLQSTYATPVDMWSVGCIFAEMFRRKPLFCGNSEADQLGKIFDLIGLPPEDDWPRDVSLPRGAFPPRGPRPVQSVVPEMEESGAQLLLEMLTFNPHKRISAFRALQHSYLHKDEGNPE
Sequence of CDK4/Cyclin D1 (P24385 whole entry partner): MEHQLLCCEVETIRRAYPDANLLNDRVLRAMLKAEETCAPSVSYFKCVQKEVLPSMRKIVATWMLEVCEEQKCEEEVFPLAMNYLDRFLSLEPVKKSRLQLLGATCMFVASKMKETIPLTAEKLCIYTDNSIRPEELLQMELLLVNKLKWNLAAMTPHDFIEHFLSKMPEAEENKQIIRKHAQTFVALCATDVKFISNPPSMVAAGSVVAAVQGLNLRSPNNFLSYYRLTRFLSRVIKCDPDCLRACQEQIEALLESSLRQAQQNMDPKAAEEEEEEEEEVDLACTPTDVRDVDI
Sequence of FLT3 (P36888 27-993, species assumed): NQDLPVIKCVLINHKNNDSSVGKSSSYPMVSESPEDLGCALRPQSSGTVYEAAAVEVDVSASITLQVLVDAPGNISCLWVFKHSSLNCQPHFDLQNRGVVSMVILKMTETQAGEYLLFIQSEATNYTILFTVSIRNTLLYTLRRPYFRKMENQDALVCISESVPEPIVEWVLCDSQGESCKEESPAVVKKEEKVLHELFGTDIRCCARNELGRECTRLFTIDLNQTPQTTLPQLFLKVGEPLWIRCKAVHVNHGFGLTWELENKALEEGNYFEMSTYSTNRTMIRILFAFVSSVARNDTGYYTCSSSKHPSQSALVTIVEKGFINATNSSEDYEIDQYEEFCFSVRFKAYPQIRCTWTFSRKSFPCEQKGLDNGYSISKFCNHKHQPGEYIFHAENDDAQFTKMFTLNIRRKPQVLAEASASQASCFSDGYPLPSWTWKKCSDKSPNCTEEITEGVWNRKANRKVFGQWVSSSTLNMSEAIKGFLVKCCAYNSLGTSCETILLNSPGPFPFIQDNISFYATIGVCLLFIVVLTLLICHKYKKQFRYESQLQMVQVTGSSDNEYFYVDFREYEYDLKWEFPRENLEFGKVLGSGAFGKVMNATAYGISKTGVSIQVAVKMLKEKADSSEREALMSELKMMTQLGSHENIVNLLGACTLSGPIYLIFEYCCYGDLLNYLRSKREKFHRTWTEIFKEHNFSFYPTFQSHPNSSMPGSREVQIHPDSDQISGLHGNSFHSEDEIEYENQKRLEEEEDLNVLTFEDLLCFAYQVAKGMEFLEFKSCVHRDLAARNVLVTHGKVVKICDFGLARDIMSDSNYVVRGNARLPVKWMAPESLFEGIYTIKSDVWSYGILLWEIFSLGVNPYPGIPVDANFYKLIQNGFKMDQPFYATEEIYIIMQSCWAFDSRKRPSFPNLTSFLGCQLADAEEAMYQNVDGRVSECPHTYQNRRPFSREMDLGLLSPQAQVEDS
Sequence of PIM1 (P11309 whole entry, species assumed): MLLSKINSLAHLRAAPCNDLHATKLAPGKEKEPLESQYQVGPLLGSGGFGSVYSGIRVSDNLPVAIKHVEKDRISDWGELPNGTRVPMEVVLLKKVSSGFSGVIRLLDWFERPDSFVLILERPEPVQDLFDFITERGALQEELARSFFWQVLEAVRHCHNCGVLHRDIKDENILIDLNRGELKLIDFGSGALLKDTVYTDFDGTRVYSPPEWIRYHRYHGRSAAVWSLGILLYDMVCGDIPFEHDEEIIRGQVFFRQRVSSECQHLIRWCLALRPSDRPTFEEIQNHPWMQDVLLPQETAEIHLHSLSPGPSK
Sequence of CDK6/cyclin D1 (Q00534 whole entry, species assumed): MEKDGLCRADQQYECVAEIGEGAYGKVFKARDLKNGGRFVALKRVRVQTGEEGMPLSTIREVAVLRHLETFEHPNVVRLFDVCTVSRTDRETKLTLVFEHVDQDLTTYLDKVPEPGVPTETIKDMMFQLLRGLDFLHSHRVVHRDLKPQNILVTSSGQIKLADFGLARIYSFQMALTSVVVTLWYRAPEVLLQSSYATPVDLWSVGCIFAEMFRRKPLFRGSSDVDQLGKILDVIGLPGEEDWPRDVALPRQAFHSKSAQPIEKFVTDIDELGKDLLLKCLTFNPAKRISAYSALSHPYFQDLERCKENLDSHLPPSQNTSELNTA
Sequence of CDK6/cyclin D1 (P24385 whole entry partner, species assumed): as the sequence (P24385 whole entry partner) above

| IC50 (CDK4/Cyclin D1) [µM] | IC50 (CDK6/cyclin D1) [µM] | selectivity for CDK6/cyclin D1 relative to CDK4/cyclin D1 (CDK6/cyclin D1) | IC50 (FLT3) [µM] | IC50 (PIM1) [µM] | Structure (SMILES) |
| --- | --- | --- | --- | --- | --- |
| 0.001 to 0.005 | < 0.001 | more than 5 times | < 0.005 | < 0.05 | CC(C)c1cnc2ccc3cnc(Nc4ccc(N5CCNCC5)cn4)nc3n12.Cl [Compound I-1, 9-Isopropyl-N-(5-(piperazin-1-yl)pyridin-2-yl)imidazo[1′,2′:1,6]pyrido[2,3-d]pyrimidin-2-amine hydrochloride] |
| < 0.001 | < 0.001 | – | – | – | CC(C)c1cnc2ccc3cnc(Nc4ccc(N5CCN(C)CC5)cn4)nc3n12 [Compound I-2, 9-Isopropyl-N-(5-(4-methylpiperazin-1-yl)pyridin-2-yl)imidazo[1′,2′:1,6]pyrido[2,3-d]pyrimidin-2-amine] |
| 0.005 to 0.01 | 0.005 to 0.01 | – | – | – | Cc1cc(Nc2ncc3ccc4ncc(C(C)C)n4c3n2)ncc1N1CCN(C)CC1 [Compound I-3] |
| 0.005 to 0.01 | 0.005 to 0.01 | – | – | – | Cc1nc(Nc2ncc3ccc4ncc(C(C)C)n4c3n2)ccc1N1CCN(C)CC1 [Compound I-4] |
| < 0.001 | < 0.001 | – | – | – | CCN1CCN(c2ccc(Nc3ncc4ccc5ncc(C(C)C)n5c4n3)nc2)CC1 [Compound I-5] |
| 0.01 to 0.02 | 0.005 to 0.01 | 2-3 times | – | – | CCN1CCN(c2cnc(Nc3ncc4ccc5ncc(C(C)C)n5c4n3)cc2C)CC1 [Compound I-6] |
| 0.005 to 0.01 | 0.005 to 0.01 | 2-3 times | – | – | CCN1CCN(c2ccc(Nc3ncc4ccc5ncc(C(C)C)n5c4n3)nc2C)CC1 [Compound I-7] |
| 0.001 to 0.005 | < 0.001 | more than 5 times | < 0.005 | < 0.05 | Cc1cc(Nc2ncc3ccc4ncc(C(C)C)n4c3n2)ncc1N1CCNCC1.Cl [Compound I-8] |
| 0.005 to 0.01 | < 0.001 | more than 10 times | < 0.005 | < 0.05 | Cc1nc(Nc2ncc3ccc4ncc(C(C)C)n4c3n2)ccc1N1CCNCC1.Cl [Compound I-9] |
| 0.005 to 0.01 | 0.005 to 0.01 | – | – | – | CC(C)c1cnc2ccc3cnc(Nc4ccc(N5CCN[C@@H](C)C5)cn4)nc3n12 [Compound I-10] |
| 0.005 to 0.01 | 0.005 to 0.01 | – | – | – | CC(C)c1cnc2ccc3cnc(Nc4ccc(N5CCNC(C)(C)C5)cn4)nc3n12 [Compound I-11] |
| 0.005 to 0.01 | 0.005 to 0.01 | – | – | – | CC(C)c1cnc2ccc3cnc(Nc4ccc(N5C[C@@H](C)N[C@@H](C)C5)cn4)nc3n12 [Compound I-12] |
| 0.01 to 0.02 | 0.005 to 0.01 | 2-3 times | – | – | CC(C)c1cnc2ccc3cnc(Nc4cc(F)c(N5CCNCC5)cn4)nc3n12.Cl [Compound I-13] |
| 0.02 to 0.05 | 0.01 to 0.02 | 2-3 times | – | – | CC(C)c1cnc2ccc3cnc(Nc4ccc(N5CCNCC5)c(F)n4)nc3n12.Cl [Compound I-14] |
| 0.02 to 0.05 | 0.02 to 0.05 | – | – | – | CC(C)c1cnc2ccc3cnc(Nc4ccc(N5CCCNCC5)cn4)nc3n12 [Compound I-15] |
| 0.02 to 0.05 | 0.02 to 0.05 | – | – | – | CC(C)c1cnc2ccc3cnc(Nc4ccc(N5CCCCC5)cn4)nc3n12 [Compound I-16] |
| 0.005 to 0.01 | < 0.001 | more than 10 times | < 0.005 | < 0.05 | CC(C)c1cnc2ccc3cnc(Nc4ccc(N5CCOCC5)cn4)nc3n12 [Compound I-17] |
| 0.01 to 0.02 | 0.001 to 0.005 | about 4 times | < 0.005 | < 0.05 | Cc1cc(Nc2ncc3ccc4ncc(C(C)C)n4c3n2)ncc1N1CCOCC1 [Compound I-18] |
| 0.005 to 0.01 | 0.005 to 0.01 | – | – | – | Cc1nc(Nc2ncc3ccc4ncc(C(C)C)n4c3n2)ccc1N1CCOCC1 [Compound I-19] |
| 0.005 to 0.01 | 0.005 to 0.01 | – | – | – | CC1CN(c2ccc(Nc3ncc4ccc5ncc(C(C)C)n5c4n3)nc2)CCO1 (stereo not drawn) [Compound I-20] |

| IC50 (CDK4/Cyclin D1) [µM] | IC50 (CDK6/cyclin D1) [µM] | selectivity for CDK6/cyclin D1 relative to CDK4/cyclin D1 (CDK6/cyclin D1) | IC50 (FLT3) [µM] | IC50 (PIM1) [µM] | Structure (SMILES) |
| --- | --- | --- | --- | --- | --- |
| 0.02 to 0.05 | 0.01 to 0.02 | 2-3 times | – | – | CC(C)c1cnc2ccc3cnc(Nc4ccc(N5C[C@@H](C)O[C@@H](C)C5)cn4)nc3n12 [Compound I-21] |
| 0.02 to 0.05 | 0.02 to 0.05 | – | – | – | CC(C)c1cnc2ccc3cnc(Nc4ccc(N5CCC6(CCNCC6)C5)cn4)nc3n12 [Compound I-22] |
| 0.02 to 0.05 | 0.02 to 0.05 | – | – | – | CC(C)c1cnc2ccc3cnc(Nc4ccc(N5CCC6(CNC6)C5)cn4)nc3n12 [Compound I-23] |
| 0.02 to 0.05 | 0.02 to 0.05 | – | – | – | CC(C)c1cnc2ccc3cnc(Nc4ccc(N5CC6(CNC6)C5)cn4)nc3n12 [Compound I-24] |
| 0.02 to 0.05 | 0.02 to 0.05 | – | – | – | CC(C)c1cnc2ccc3cnc(Nc4ccc(N5CCC6(CC5)CNC6)cn4)nc3n12 [Compound I-25] |
| 0.02 to 0.05 | 0.02 to 0.05 | – | – | – | CC(C)c1cnc2ccc3cnc(Nc4ccc(N5CC6(CCNCC6)C5)cn4)nc3n12 [Compound I-26] |
| 0.05 to 0.1 | 0.05 to 0.1 | – | – | – | CC(C)c1cnc2ccc3cnc(Nc4ccc(N5CCNCC5)cc4F)nc3n12 [Compound I-27] |
| 0.05 to 0.1 | 0.05 to 0.1 | – | – | – | COc1cc(OCCN(C)C)ccc1Nc1ncc2ccc3ncc(C(C)C)n3c2n1 [Compound I-28] |
| 0.05 to 0.1 | 0.05 to 0.1 | – | – | – | COc1cc(OC2CCN(C)CC2)ccc1Nc1ncc2ccc3ncc(C(C)C)n3c2n1 [Compound I-29] |
| 0.05 to 0.1 | 0.05 to 0.1 | – | – | – | COc1ccc2cc(Nc3ncc4ccc5ncc(C(C)C)n5c4n3)ccc2n1 [Compound I-30] |
| 0.001 to 0.005 | < 0.001 | more than 5 times | < 0.005 | < 0.05 | Cl.c1cc(Nc2ncc3ccc4ncc(C5CCCC5)n4c3n2)ncc1N1CCNCC1 [Compound I-31] |
| 0.005 to 0.01 | 0.005 to 0.01 | – | – | – | CCN1CCN(c2cnc(Nc3ncc4ccc5ncc(C6CCCC6)n5c4n3)cc2C)CC1 [Compound I-32] |
| 0.005 to 0.01 | < 0.001 | more than 10 times | < 0.005 | < 0.05 | Cc1cc(Nc2ncc3ccc4ncc(C5CCCC5)n4c3n2)ncc1N1CCNCC1.Cl [Compound I-33] |
| 0.005 to 0.01 | < 0.001 | more than 10 times | < 0.005 | < 0.05 | Cc1nc(Nc2ncc3ccc4ncc(C5CCCC5)n4c3n2)ccc1N1CCNCC1.Cl [Compound I-34] |
| 0.005 to 0.01 | 0.005 to 0.01 | – | – | – | C[C@@H]1CN(c2ccc(Nc3ncc4ccc5ncc(C6CCCC6)n5c4n3)nc2)C[C@H](C)N1 [Compound I-35] |
| 0.01 to 0.02 | 0.01 to 0.02 | – | – | – | Fc1cc(Nc2ncc3ccc4ncc(C5CCCC5)n4c3n2)ncc1N1CCNCC1 [Compound I-36] |
| 0.005 to 0.01 | 0.005 to 0.01 | – | – | – | Fc1nc(Nc2ncc3ccc4ncc(C5CCCC5)n4c3n2)ccc1N1CCNCC1 [Compound I-37] |
| 0.01 to 0.02 | 0.001 to 0.005 | about 4 times | < 0.005 | < 0.05 | Cc1cc(Nc2ncc3ccc4ncc(C5CCCC5)n4c3n2)ncc1N1CCOCC1 [Compound I-38] |
| 0.02 to 0.05 | 0.01 to 0.02 | 2-3 times | – | – | C[C@@H]1CN(c2ccc(Nc3ncc4ccc5ncc(C6CCCC6)n5c4n3)nc2)C[C@H](C)O1 [Compound I-39] |
